Results on one molecule are retold here after patent US20230355594A1, “TOPICAL OPHTHALMOLOGICAL COMPOSITIONS” (ADS THERAPEUTICS LLC, priority 2020, published 2023).

For this series the following is noted: for Atropine concentraion, Observed stable concentration after 10X serial dilution of the saturating concentration: successive 10X dilutions.
Where [1] appears, read: 99.25% F6H8, 0.75% phenylethyl alcohol.

Molecules are shown by their SMILES. Where “and” joins values, the source holds several entries; their conditions need not be identical. Equal entries are not always repeated. Where two headings read alike, the source gives them in different places.

On to `CN1[C@@H]2CC[C@H]1C[C@@H](OC(=O)C(CO)c1ccccc1)C2` (stereo partly shown) [atropine], for which the “Atropine concentraion, Measured saturating concentraion by HPLC/UV” value (“Atropine concentraion … by HPLC/UV” below) by setting is: (98.00% F6H8, 2.00% isopropanol) 0.153 w/w %; (99.25% F6H8, 0.75% ethanol) 0.108 w/w %; (99.25% F6H8, 0.75% isopropanol) 0.082 w/w %; under setting [1], 0.085 w/w %; (99.50% F6H8, 0.50% ethanol) 0.089 w/w %; (99.50% F6H8, 0.50% isopropanol) 0.055 w/w %. Besides, the “Atropine concentraion … by HPLC/UV” value (99.50% F6H8, 0.50% phenylethyl alcohol) is 0.055 w/w %; the “Atropine concentraion … by HPLC/UV” value (99.75% F6H8, 0.25% ethanol) was 0.031 w/w %; the “Atropine concentraion … by HPLC/UV” value (99.75% F6H8, 0.25% isopropanol) came to 0.046 w/w %; the “Atropine concentraion … by HPLC/UV” value (99.75% F6H8, 0.25% phenylethyl alcohol) amounted to 0.043 w/w %. Moreover, the “Atropine concentraion, Observed stable concentration after 10X serial dilution of the saturating concentration” value was 0.0108 w/w % and 0.00108 w/w % and 0.000108 w/w % (99.25% F6H8, 0.75% ethanol); 0.0082 w/w % and 0.00082 w/w % and 0.000082 w/w % (99.25% F6H8, 0.75% isopropanol); 0.0085 w/w % and 0.00085 w/w % and 0.000085 w/w % under setting [1].
